{"source": "patent US20240316008A1", "about": "“TREATMENT OF SYSTEMIC IMMUNE ACTIVATION SYNDROMES” (TRANQUIS THERAPEUTICS, INC., priority 2020, published 2024)", "key": {"TNF-α": {"test_system": "TNF-α", "assay": "LPS-induced TNF-α production of human PBMC (CBA assay)", "type": "cell-based", "details": "100 ng/ml LPS, 24 hours, compared to no treatment", "description": "Peripheral blood mononuclear cells (PBMC) from 4 different healthy volunteers were used in this study. Fresh blood samples were collected at Stanford Blood Center and processed for PBMC isolation with Ficoll gradient. PBMC samples were stored in liquid nitrogen at […] for subsequent analysis of TNF-α production. For TNF-α stimulation, frozen PBMC samples were thawed and rested at 37° C. before cells were stimulated with 100 ng/ml of LPS for 24 hours. DMSO (1:1000 final dilution) or TQS-168 in DMSO (1:1000 final dilution) at various concentrations was added to cell cultures of LPS-stimulated PBMC to evaluate the effects of T-168 on TNF-α production of human primary myeloid cells. After 24 hours stimulation, supernatant samples from various conditions were collected and TNF-α concentrations in the supernatants analyzed with cytometric bead array (CBA) assay per protocols from BD Biosciences. TNF-α was quantified by median fluorescent intensity reading (MFI). Samples were analyzed directly after staining with LSRII flow cytometer."}, "TNFα": {"test_system": "TNFα", "assay": "TNFα secretion from LPS-stimulated BV2 cells (CBA assay)", "type": "cell-based, murine", "details": "100 ng/ml LPS, 24 hours; for TNFα production by LPS-stimulated BV-2 myeloid cells: compared to control", "description": "LPS was used to induce cytokine secretion from BV-2 cells. Cells were incubated with TQS-168 at various concentrations to assess whether TQS-168 could suppress the LPS-promoted release of various cytokines from in vitro cell cultures. Cytokine secretion was measured by cytometric bead array (CBA) fluorescence-activated cell sorting (FACS).\nBriefly, a vial of BV2 frozen stock (1 million cells per ml in complete medium) was thawed into 10 mL of complete medium per vial for a total of 4 vials. The vials were then centrifuged at 1800 rpm for 3 minutes to wash away freezing media. The four vials were then pooled into 25 mL of complete medium. TQS-168 was prepared in DMSO.\nCells were incubated for 24 hours in the presence of medium (negative control), LPS (positive control), DMSO+LPS (positive control, controlling additionally for presence of DMSO in the TQS-168 stock solution), or LPS+TQS-168 at final concentrations of 1 μM, 5 μM, 10 μM, and 20 μM.\nAfter the well plates were incubated overnight for 24 hours, they were centrifuged at 1800 rpm for 5 minutes. Next, 150 μl from each well was transferred to a new set of plates, of which 50 μl was used for CBA. The plates were then centrifuged with the cells, followed by addition of 100 μl of DAPI (50 ml of PBS+10 μl of DAPI stock at 1:5000 dilution). The plates were then incubated in the dark for 5 minutes, followed by addition of 100 μl of PBS and centrifuged at 1800 rpm for 5 minutes. Finally, the plates were resuspended in 200 μl of PBS and tested.\nMultiplexed cytometric bead array (CBA) assay was performed according to standard techniques to detect presence in the cell culture medium of secreted murine TNFα, IL-6, IFNγ, IL-12, monocyte chemoattractant protein 1 (MCP-1), and IL-10.\nA total of 4-11 replicates of BV2 cultures in different conditions were investigated. Frozen BV2 microglia cell line was thawed and propagated in complete media (RPMI, 10% heat inactivated FBS, 1% L-glutamine, 1% Pen-Strep) until growth rate reached log phase.\nCells were stimulated with 100 ng/ml of LPS for 24 hours. […]"}, "sepsis": {"test_system": "sepsis", "assay": "Mouse model of sepsis / hyperinflammation (virus followed by LPS, as described in Wang)", "details": "mice, intravenous, various doses", "quoted_text": "Briefly, mice are anesthetized with a ketamine/xylazine mixture. A virus, such as a coronavirus, influenza virus, rhinovirus, respiratory syncytial virus, metapneumovirus, adenovirus, or a boca virus, is administered. The virus may be administered intranasally dropwise.\nNext, LPS diluted in a buffer, such as PBS, is injected intraperitoneally at specific doses.\nTo provide comparators for assessing the effects of TQS-168 and its analogs, groups of positive control mice are treated with one or more antibodies against pro-inflammatory cytokines of interest: anti-NK1.1 antibody (PK136; Bio X Cell) diluted in PBS is injected at 100 μg per injection (100 μL) retro-orbitally concurrently with each challenge; anti-IFNγ antibody (XMG1.2, Bio X Cell) is diluted in PBS and injected at 500 μg per injection (100 μL) retro-orbitally concurrently with each challenge; anti-IL6R (15A7.10 mg/kg; Bio X Cell), anti-TNFα (XT3.11, 500 μg per injection; Bio X Cell), anti-IFNαR (MAR1-5A3, 10 mg/kg; Bio X Cell), and anti-IL1β (B122, 500 μg per injection; Bio X Cell) are injected retro-orbitally. For a negative control, isotype antibody is injected retro-orbitally.\nThe pro-inflammatory cytokines can be measured using the ELISA assay described in Example 1."}, "IL-6": {"test_system": "IL-6", "assay": "LPS-stimulated IL-6 secretion from human PBMC (ELISA)", "type": "cell-based", "details": "human PBMC from a first donor, 1 ng/ml LPS, 24h", "description": "Briefly, 20,000 human PBMC were aliquoted into each well. LPS was added at 1 ng/ml and the cells incubated for 24h in the presence of LPS and TQS-168 or one of its metabolites. Readouts were human IL-6 ELISA and human TNFα ELISA. For assay, supernatants were diluted in culture medium. The supernatant dilution for the IL-6 ELISA was 1:8, and 1:2 for the human TNFα ELISA."}, "PGC-1α": {"test_system": "PGC-1α", "assay": "PGC-1α protein expression in BV2 microglia cells (Western blot)", "type": "cell-based, murine", "details": "24 hours", "description": "Frozen BV2 murine microglia cells were thawed and propagated in complete media (RPMI, 10% heat-inactivated FBS, 1% L-glutamine, 1% Pen-Strep) until the growth rate reached log phase. For protein expression analysis, DMSO (1:1000 final dilution) or TQS-168 in DMSO (1:1000 final dilution) at 20 μM was added to cell cultures. After 24 hours stimulation, supernatant was discarded and cell lysis buffer (Cell Signal) was added to adherent cells to extract protein. Total protein was quantified and normalized across all samples by BCA assays. Two replicates of untreated cultures and three replicates of TQS-168-treated cultures were investigated, with each replicate containing lysates from 5,000,000 BV2 myeloid cells. PGC1α expression was detected by Western Blot using an anti-PGC-1α antibody (SC13067, Santa Cruz Biotechnology, 1:500 dilution). Anti-β-actin antibody (SC8432, Santa Cruz Biotechnology, 1:2000 dilution) was used to quantify beta-actin, a housekeeping gene whose expression level is not know to be affected by TQS-168. […] Total protein was quantified and normalized across all samples by BCA assays. PGC-1α was subsequently detected by Western Blot using an anti-PGC-1α antibody (SC13067, Santa Cruz Biotechnology, 1:500 dilution). β-actin was detected with an anti-β-actin antibody (SC8432, Santa Cruz Biotechnology, 1:2000 dilution). […]"}, "[1]": {"test_system": "neurodegenerative diseases", "details": "murine models of Parkinson's disease, Alzheimer's disease, ALS; cited from earlier work"}}, "data": [{"smiles": "CC(C)(C)c1ccc(-c2nc3ccccc3[nH]2)cc1", "note": "[TQS-168, 2-(4-tert-butylphenyl)-1H-benzimidazole]", "values": [{"measurement": "suppression of TNFα production", "setting": "TNF-α; 5 μM", "value": "statistically significant suppression"}, {"measurement": "suppression of TNFα production", "setting": "TNF-α; 20 μM", "value": "statistically significant suppression"}, {"measurement": "TNFα production by LPS-stimulated BV-2 myeloid cells", "setting": "TNFα; 5 μM", "value": "suppress"}, {"measurement": "TNFα production by LPS-stimulated BV-2 myeloid cells", "setting": "TNFα; 20 μM", "value": "suppress"}, {"measurement": "LPS-induced secretion of TNFα", "setting": "TNFα; BV2 cells, 1 μM-20 μM", "value": "reduce"}, {"measurement": "circulating concentrations of pro-inflammatory cytokines", "setting": "sepsis", "value": "effective in reducing"}, {"measurement": "hyperinflammatory symptoms", "setting": "sepsis", "value": "effective in reducing"}, {"measurement": "LPS-stimulated IL-6 secretion from PBMCs", "setting": "IL-6", "value": "inhibition"}, {"measurement": "PGC-1α protein expression", "setting": "PGC-1α; BV2 cells, concentrations ranging from 0.7 μM to 20 μM", "value": "induces"}, {"measurement": "PGC-1α protein expression", "setting": "PGC-1α; BV2 microglia cells, 20 μM, Western blot", "value": "induces"}, {"measurement": "disease severity", "setting": "[1]", "value": "reduce"}, {"measurement": "myeloid-mediated inflammation", "setting": "[1]", "value": "suppress"}]}]}
